Test results: patent US20220389477A1, “METHOD FOR EVALUATING ANTIBIOTIC SUSCEPTIBILITY” (Vrije Universiteit Brussel, priority 2019, published 2022)
Values after ≈ are worked out from the molar mass of the structure shown. Read-outs that look alike come from different tables or passages of the source.

Key:
Acinetobacter Species = assay: Optical third-derivative MIC method, culture in broth; assay type: cell-based; conditions: AC/2990; for MIC: Acinetobacter
Source text: (§1) The method of FIG. 1 starts at a time equal to zero, t0 (1). Preferably, said t0 is the moment a pure bacteria culture is finished being prepared. Alternatively, said t0 is the moment all wells contain both said bacteria culture and said antimicrobial drug. After the starting of the experiment each well is periodically illuminated with a light source and the intensity of the transmitted light is detected with a photodetector (2). Preferably, each well is illuminated and the intensity of the transmitted light is detected every hour (2). More preferably, each well is illuminated and the intensity of the transmitted light is detected every 5 to 15 min. After a predetermined time length, preferably after 4 hours, a first, a second and a third derivative of said measured intensity is calculated (3) in a first and a second time frame for each well. Preferably, said second time frame is the last measured time frame after the test has been running for said predetermined time length, and said first time frame is the time frame preceding the second time frame. More preferably, said first time frame is between two and three hours and said second time frame is between three and four hours. After the calculation of said derivatives, said first derivative in said second time frame of said reference well is compared to a growth speed threshold value (4). Preferably, said growth speed threshold value is 0.166 (4). If said first derivative in said second time frame of said reference well is larger than or equal to said growth speed threshold value said bacteria culture is classified as Type I (4). If said first derivative in said second time frame of said reference well is smaller than said growth speed threshold value said bacteria culture is classified as Type II (4). Subsequently, independent of the classification of the bacteria culture according to the two types, the method comprises the following steps which are performed for each well or for all wells except said reference well. Both said first and said second time frames are evaluated to see if there is an inflection point present in the second derivative in said first and/or said second time frame (5).
(§2) If said first and/or said second time frame comprise said inflection point than said third derivative in said first time frame is compared to said third derivative in said second time frame (6). If said third derivative in said first time frame is larger than said third derivative in said second time frame, then said first time frame and said second time frame are selected as a first and second time frame to be used in a minimal inhibitory concentration determination method (10). If said third derivative in said first time frame is not larger than said third derivative in said second time frame, then said well is illuminated again after a certain time period, preferably an hour, more preferably 5 to 15 min after said predetermined time length said, with a light source and the intensity of the transmitted light is detected with a photodetector forming a new time frame subsequent to said second time frame (7). A third derivative, and possibly also a first and/or a second derivative, is calculated in said new time frame (7). Further, in step (7) a new first time frame is put equal to said second time frame and a new second time frame to equal to said new time frame. Subsequently, said third derivative in said new first time frame is compared to said third derivative in said new second time frame (8). If said derivative in said new first time frame is larger than said third derivative in said new second time frame, then said new first time frame and said new second time frame are selected as a first and second time frame to be used in a minimal inhibitory concentration determination method (10). […]

[1] = system: Klebsiella pneumonia culture; assay: as above; assay type: cell-based; conditions: for HR? at MIC (25%) / HR? at MIC (40%) / HR? at MIC (60%) / HR? at MIC (75%): ratio MIC T2/T1; for MIC: Klebsiella pneumoniae
Source text: as §1, §2

- MIC (Acinetobacter Species; 2 h-3 h, omitted from determination (Type II), read-out: MIC (25%) T1): 0.25 µg/mL (≈ 0.835 µM)
- MIC (Acinetobacter Species; 2 h-3 h, read-out: MIC (40%) T1): 0.25 µg/mL (≈ 0.835 µM)
- MIC (Acinetobacter Species; 2 h-3 h, read-out: MIC (60%) T1): < 0.125 µg/mL
- MIC (Acinetobacter Species; 2 h-3 h, read-out: MIC (75%) T1): < 0.125 µg/mL
- MIC (Acinetobacter Species; 3 h-4 h, omitted from determination (Type II), read-out: MIC (25%) T2): 128 µg/mL (≈ 428 µM)
- MIC (Acinetobacter Species; 3 h-4 h, read-out: MIC (40%) T2): 0.25 µg/mL (≈ 0.835 µM)
- MIC (Acinetobacter Species; 3 h-4 h, read-out: MIC (60%) T2): < 0.125 µg/mL
- MIC (Acinetobacter Species; 3 h-4 h, read-out: MIC (75%) T2): < 0.125 µg/mL
- MIC (Acinetobacter Species; FIG. 5A, overall conclusion, read-out: MIC value determined by the method): 0.25 µg/mL (≈ 0.835 µM)
- MIC ([1]; 3 h, KP/38.3002, FIG. 5C, Table 5, 3 h-4 h, read-out: MIC (25%) T1): 16 µg/mL (≈ 53.4 µM)
- MIC ([1]; 3 h, KP/38.3002, FIG. 5C, Table 5, 3 h-4 h, read-out: MIC (40%) T1): 0.25 µg/mL (≈ 0.835 µM)
- MIC ([1]; 3 h, KP/38.3002, FIG. 5C, Table 5, 3 h-4 h, read-out: MIC (60%) T1): 0.25 µg/mL (≈ 0.835 µM)
- MIC ([1]; 3 h, KP/38.3002, FIG. 5C, Table 5, 3 h-4 h, read-out: MIC (75%) T1): 0.25 µg/mL (≈ 0.835 µM)
- MIC ([1]; 3 h, KP/153.4346, 3 h-4 h, read-out: MIC (25%) T1): > 256 µg/mL
- MIC ([1]; 3 h, KP/153.4346, 3 h-4 h, read-out: MIC (40%) T1): > 256 µg/mL
- MIC ([1]; 3 h, KP/153.4346, 3 h-4 h, read-out: MIC (60%) T1): 0.5 µg/mL (≈ 1.67 µM)
- MIC ([1]; 3 h, KP/153.4346, 3 h-4 h, read-out: MIC (75%) T1): 0.5 µg/mL (≈ 1.67 µM)
- MIC ([1]; 3 h, MP/072.3489, 3 h-4 h, read-out: MIC (25%) T1): 0.5 µg/mL (≈ 1.67 µM)
- MIC ([1]; 3 h, MP/072.3489, 3 h-4 h, read-out: MIC (40%) T1): 0.5 µg/mL (≈ 1.67 µM)
- MIC ([1]; 3 h, MP/072.3489, 3 h-4 h, read-out: MIC (60%) T1): 0.35 µg/mL (≈ 1.17 µM)
- MIC ([1]; 3 h, MP/072.3489, 3 h-4 h, read-out: MIC (75%) T1): < 0.125 µg/mL
- MIC ([1]; 4 h, KP/38.3002, FIG. 5C, Table 5, 4 h-5 h, read-out: MIC (25%) T2): 16 µg/mL (≈ 53.4 µM)
- MIC ([1]; 4 h, KP/38.3002, FIG. 5C, Table 5, 4 h-5 h, read-out: MIC (40%) T2): 8 µg/mL (≈ 26.7 µM)
Structure (SMILES): C[C@@H](O)[C@H]1C(=O)N2C(C(=O)O)=C(SCCN=CN)C[C@H]12 [imipenem]
- HR? at MIC (40%) (Acinetobacter Species; ratio MIC T2/T1): no (If the ratio of the MIC value in the second time frame over the MIC value in the first time frame is lower than or equal to 4 then the ratio is labelled not to be heteroresistant)
- HR? at MIC (60%) (Acinetobacter Species; ratio MIC T2/T1): no (If the ratio of the MIC value in the second time frame over the MIC value in the first time frame is lower than or equal to 4 then the ratio is labelled not to be heteroresistant)
- HR? at MIC (75%) (Acinetobacter Species; ratio MIC T2/T1): no (If the ratio of the MIC value in the second time frame over the MIC value in the first time frame is lower than or equal to 4 then the ratio is labelled not to be heteroresistant)
- HR? at MIC (25%) (Acinetobacter Species; ratio MIC T2/T1, omitted (Type II)): yes (If the ratio of the MIC value in the second time frame over the MIC value in the first time frame is higher than or equal to 8 then the ratio is labelled to be heteroresistant)
- HR? at MIC (25%) ([1]; KP/38.3002, Table 5): no (If the ratio of the MIC value in the second time frame over the MIC value in the first time frame is lower than or equal to 4 then the ratio is labelled not to be heteroresistant)
- HR? at MIC (40%) ([1]; KP/38.3002, Table 5): yes (If the ratio of the MIC value in the second time frame over the MIC value in the first time frame is higher than or equal to 8 then the ratio is labelled to be heteroresistant)
- HR? at MIC (60%) ([1]; KP/38.3002, Table 5): yes (If the ratio of the MIC value in the second time frame over the MIC value in the first time frame is higher than or equal to 8 then the ratio is labelled to be heteroresistant)
- HR? at MIC (75%) ([1]; KP/38.3002, Table 5): yes (If the ratio of the MIC value in the second time frame over the MIC value in the first time frame is higher than or equal to 8 then the ratio is labelled to be heteroresistant)
- HR? at MIC (25%) ([1]; KP/38.3002, Table 10): yes (If the ratio of the MIC value in the second time frame over the MIC value in the first time frame is higher than or equal to 8 then the ratio is labelled to be heteroresistant)
- HR? at MIC (40%) ([1]; KP/38.3002, Table 10): yes (If the ratio of the MIC value in the second time frame over the MIC value in the first time frame is higher than or equal to 8 then the ratio is labelled to be heteroresistant)
- HR? at MIC (60%) ([1]; KP/38.3002, Table 10): yes (If the ratio of the MIC value in the second time frame over the MIC value in the first time frame is higher than or equal to 8 then the ratio is labelled to be heteroresistant)
- HR? at MIC (75%) ([1]; KP/38.3002, Table 10): yes (If the ratio of the MIC value in the second time frame over the MIC value in the first time frame is higher than or equal to 8 then the ratio is labelled to be heteroresistant)
- HR? at MIC (40%) ([1]; KP/38.3002, Table 11): yes (If the ratio of the MIC value in the second time frame over the MIC value in the first time frame is higher than or equal to 8 then the ratio is labelled to be heteroresistant)
- HR? at MIC (60%) ([1]; KP/38.3002, Table 11): yes (If the ratio of the MIC value in the second time frame over the MIC value in the first time frame is higher than or equal to 8 then the ratio is labelled to be heteroresistant)
- HR? at MIC (75%) ([1]; KP/38.3002, Table 11): yes (If the ratio of the MIC value in the second time frame over the MIC value in the first time frame is higher than or equal to 8 then the ratio is labelled to be heteroresistant)
- HR? at MIC (25%) ([1]; KP/153.4346): no (If the ratio of the MIC value in the second time frame over the MIC value in the first time frame is lower than or equal to 4 then the ratio is labelled not to be heteroresistant)
- HR? at MIC (40%) ([1]; KP/153.4346): no (If the ratio of the MIC value in the second time frame over the MIC value in the first time frame is lower than or equal to 4 then the ratio is labelled not to be heteroresistant)
- HR? at MIC (60%) ([1]; KP/153.4346): yes (If the ratio of the MIC value in the second time frame over the MIC value in the first time frame is higher than or equal to 8 then the ratio is labelled to be heteroresistant)
- HR? at MIC (75%) ([1]; KP/153.4346): yes (If the ratio of the MIC value in the second time frame over the MIC value in the first time frame is higher than or equal to 8 then the ratio is labelled to be heteroresistant)
